# Values of other authors as cited in patent publication US5674533A, “Pharmaceutical composition for the controlled release of moguisteine in a liquid suspension” (Recordati, S.A., Chemical And Pharmaceutical Company, priority 1994, dated 1997).
# Key:
# [1] = in humans
# [2] = for antitussive activity of enantiomers: R(+) vs S(-)
# [3] = test system: rapidly adapting irritant receptors (RARs); settings: peripheral site of action
# [4] = in vivo
# [5] = not given; remark: listed apart in the source
smiles,measurement,setting,value
"COc1ccccc1OCC1SCCN1C(=O)CC(=O)O (racemic) [active metabolite, (R,S)-2-[(methoxyphenoxy)methyl]-3-carboxyacetyl]-1,3 thiazolidine acid]",presence in biological fluids in measurable quantities,after oral or intravenous administration of moguisteine,only its active metabolite
same,rate of absorption relative to moguisteine,oral,five times slower than moguisteine
"CCOC(=O)CC(=O)N1CCSC1COc1ccccc1OC (racemic) [moguisteine, (R,S)-2-[(2-methoxyphenoxy)methyl-3-ethoxycarbonyl-1-acetyl]-1,3-thiazolidine]",half-life after administration,[1],less than one hour
same,"antitussive potency relative to codeine, dextromethorphan and zipripol",[2]; in vivo,"as potent as codeine, dextromethorphan and zipripol"
same,"antitussive potency relative to (D,L)-dropropizine","[2]; vs (D,L)-dropropizine",3-4 times more potent
same,action via opioid receptors,opioid receptors,does not act via opioid receptors
same,interaction with RARs,[3],"interacts with the so-called ""rapidly adapting irritant receptors"" (RARs)"
same,addiction,[4],causes no addiction
same,tolerability in high doses relative to codeine or dextromethorphan,[4],better tolerated in high doses than codeine or dextromethorphan
same,solubility in aqueous fluids,[5],relatively insoluble in aqueous fluids
"CCOC(=O)CC(=O)N1CCSC1COc1ccccc1OC (single isomer, unassigned) [R(+) enantiomer]",antitussive activity of enantiomers,[2],equivalent antitussive activity
"CCOC(=O)CC(=O)N1CCSC1COc1ccccc1OC (single isomer, unassigned) [S(-) enantiomer]",antitussive activity of enantiomers,[2],equivalent antitussive activity
COc1ccc2c3c1O[C@H]1[C@@H](O)C=C[C@H]4[C@@H](C2)N(C)CC[C@@]341 [Codeine],addiction,[4],potentially causing addiction
